Experimental data reported in ChEMBL document CHEMBL4715861, “Design, synthesis and biological evaluation of new bivalent quinazoline analogues as IAP antagonists” (Bioorg Med Chem Lett, 2021).
Active and inactive are the calls of the source. The rule behind the calls is not given here.

Columns and labels:
MDA-MB-231 [1] = assay: Cytotoxicity against human MDA-MB-231 cells; type: functional, cell-based
Cytochrome P450 3A4 = Cytochrome P450 3A4 (Homo sapiens, UniProt P08684); assay: Inhibition of CYP3A4 (unknown origin); type: ADME
Cytochrome P450 1A2 = target: T1, Cytochrome P450 1A2 (Homo sapiens, UniProt P05177); assay: Inhibition of CYP1A2 (unknown origin); type: ADME
T1 sequence (P05177 whole entry): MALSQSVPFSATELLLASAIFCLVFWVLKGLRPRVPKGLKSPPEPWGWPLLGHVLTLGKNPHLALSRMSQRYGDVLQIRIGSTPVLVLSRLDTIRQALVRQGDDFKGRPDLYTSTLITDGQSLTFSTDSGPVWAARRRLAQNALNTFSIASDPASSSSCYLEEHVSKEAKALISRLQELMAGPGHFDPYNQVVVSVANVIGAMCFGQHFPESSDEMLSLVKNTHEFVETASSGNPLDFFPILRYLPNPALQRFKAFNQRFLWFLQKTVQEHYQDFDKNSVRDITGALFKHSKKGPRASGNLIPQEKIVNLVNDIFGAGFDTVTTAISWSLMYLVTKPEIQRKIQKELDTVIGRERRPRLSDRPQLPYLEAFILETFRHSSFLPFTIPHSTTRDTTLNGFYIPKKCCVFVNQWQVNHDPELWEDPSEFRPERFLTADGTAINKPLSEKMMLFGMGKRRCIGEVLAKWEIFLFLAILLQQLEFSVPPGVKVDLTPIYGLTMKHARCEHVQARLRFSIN

Cytochrome P450 2C9 = Cytochrome P450 2C9 (Homo sapiens, UniProt P11712); assay: Inhibition of CYP2C9 (unknown origin); type: ADME
Cytochrome P450 2C19 = Cytochrome P450 2C19 (Homo sapiens, UniProt P33261); assay: Inhibition of CYP2C19 (unknown origin); type: ADME
Cytochrome P450 2D6 = Cytochrome P450 2D6 (Homo sapiens, UniProt P10635); assay: Inhibition of CYP2D6 (unknown origin); type: ADME
[2] = Stability in human microsomes assessed as parent compound remaining at 60 mins; type: ADME, Microsome; conditions: read-out: Stabilty
[3] = Stability in dog microsomes assessed as parent compound remaining at 60 mins; type: ADME, Canis lupus familiaris, Microsome; conditions: read-out: Stabilty
[4] = Stability in rat microsomes assessed as parent compound remaining at 60 mins; type: ADME, Microsome; conditions: read-out: Stabilty
[5] = Stability in mouse microsomes assessed as parent compound remaining at 60 mins; type: ADME, Microsome; conditions: read-out: Stabilty
[6] = target: T2, E3 ubiquitin-protein ligase XIAP (Homo sapiens, UniProt P98170); assay: Binding affinity to human XIAP-BIR3 (241 to 356 residues)
[7] = target: T2, E3 ubiquitin-protein ligase XIAP; assay: Antagonist activity at XIAP in human MDA-MB-231 cells assessed as fold change in Caspase-9 activation at 1 nM; type: cell-based; conditions: filed as antagonist
[8] = target: T2, E3 ubiquitin-protein ligase XIAP; assay: Antagonist activity at XIAP in human MDA-MB-231 cells assessed as fold change in Caspase-3 activation at 1 nM; type: cell-based; conditions: filed as antagonist
MDA-MB-468 = assay: Cytotoxicity against human MDA-MB-468 cells; type: functional, cell-based
MCF7 = assay: Cytotoxicity against human MCF7 cells; type: functional, cell-based
OVCAR-3 = assay: Cytotoxicity against human OVCAR-3 cells; type: functional, cell-based
BXPC-3 = assay: Cytotoxicity against human BxPC3 cells; type: functional, cell-based
PANC-1 = assay: Cytotoxicity against human PANC-1 cells; type: functional, cell-based
MIA PaCa-2 = assay: Cytotoxicity against human MIA PaCa-2 cells; type: functional, cell-based
J82 = assay: Cytotoxicity against human J82 cells; type: functional, cell-based
HS27 = assay: Cytotoxicity against human HS27 cells; type: cell-based
[9] = Toxicity in mouse xenografted with human MDA-MB-231 cells assessed as reduction in weight at 3 mg/kg, iv administered for 14 days and measured after 30 days; type: organism-based; conditions: in vivo, 336 h, time 14 day
MDA-MB-231 [10] = assay: Antitumour activity against in human MDA-MB-231 cells xenografted in mouse assessed as reduction in tumour burdens at 3 mg/kg, iv administered for 14 days and measured after 30 days; type: functional, organism-based; conditions: time 14.0 day
MDA-MB-231 [11] = assay: Cytotoxicity against human MDA-MB-231 cells assessed as cell viability at 1 nM (reference value: 98%); type: functional; conditions: read-out: Activity
MDA-MB-231 [12] = assay: Cytotoxicity against human MDA-MB-231 cells assessed as cell viability at 2 nM (reference value: 98%); type: functional; conditions: read-out: Activity
MDA-MB-231 [13] = assay: Cytotoxicity against human MDA-MB-231 cells assessed as cell viability at 5 nM (reference value: 98%); type: functional; conditions: read-out: Activity
[14] = target: T2, E3 ubiquitin-protein ligase XIAP; assay: Induction of degradation of XIAP-BIR3 domain in human MDA-MB-231 cells; type: cell-based; conditions: dose 1-5 nM
[15] = target: Baculoviral IAP repeat-containing protein 2 (Homo sapiens) (UniProt Q13490); assay: Induction of degradation of cIAP1-BIR3 domain in human MDA-MB-231 cells; type: cell-based; conditions: dose 1-5 nM
[16] = target: Baculoviral IAP repeat-containing protein 3 (Homo sapiens) (UniProt Q13489); assay: Induction of degradation of cIAP2-BIR3 domain in human MDA-MB-231 cells; type: cell-based; conditions: dose 1-5 nM
[17] = Toxicity in mouse xenografted with human MDA-MB-231 cells assessed as inflammation around injection site at 3 mg/kg, iv after 6 days; type: organism-based; conditions: in vivo, 144 h, time 6 day

T2 sequence (P98170 whole entry, the tested form may be a part): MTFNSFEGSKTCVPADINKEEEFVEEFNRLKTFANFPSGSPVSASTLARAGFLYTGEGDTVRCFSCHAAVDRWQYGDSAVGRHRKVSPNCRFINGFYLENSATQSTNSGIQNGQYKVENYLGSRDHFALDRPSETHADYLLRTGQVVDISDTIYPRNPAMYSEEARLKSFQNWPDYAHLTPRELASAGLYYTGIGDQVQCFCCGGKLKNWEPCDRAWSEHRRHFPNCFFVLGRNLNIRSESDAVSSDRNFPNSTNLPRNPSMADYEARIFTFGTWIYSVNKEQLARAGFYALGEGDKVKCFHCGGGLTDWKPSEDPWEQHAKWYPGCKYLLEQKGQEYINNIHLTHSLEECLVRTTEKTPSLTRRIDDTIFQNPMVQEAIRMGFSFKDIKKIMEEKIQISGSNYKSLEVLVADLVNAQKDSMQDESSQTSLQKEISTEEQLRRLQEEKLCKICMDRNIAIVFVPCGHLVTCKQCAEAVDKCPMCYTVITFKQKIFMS
Sequence of Cytochrome P450 3A4 (P08684 whole entry): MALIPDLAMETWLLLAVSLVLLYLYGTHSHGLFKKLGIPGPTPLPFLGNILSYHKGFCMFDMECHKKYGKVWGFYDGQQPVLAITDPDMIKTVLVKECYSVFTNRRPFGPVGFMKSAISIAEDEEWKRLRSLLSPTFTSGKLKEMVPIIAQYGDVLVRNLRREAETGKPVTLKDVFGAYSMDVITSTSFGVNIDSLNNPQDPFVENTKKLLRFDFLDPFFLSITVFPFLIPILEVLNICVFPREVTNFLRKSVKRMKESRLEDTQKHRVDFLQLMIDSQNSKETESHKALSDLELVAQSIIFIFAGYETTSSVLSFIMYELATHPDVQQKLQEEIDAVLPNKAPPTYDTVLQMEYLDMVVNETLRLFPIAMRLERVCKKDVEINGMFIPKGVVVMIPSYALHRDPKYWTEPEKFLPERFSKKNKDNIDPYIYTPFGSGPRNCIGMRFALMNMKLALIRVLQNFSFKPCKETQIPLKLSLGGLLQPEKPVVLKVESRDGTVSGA
Sequence of Cytochrome P450 2C9 (P11712 whole entry): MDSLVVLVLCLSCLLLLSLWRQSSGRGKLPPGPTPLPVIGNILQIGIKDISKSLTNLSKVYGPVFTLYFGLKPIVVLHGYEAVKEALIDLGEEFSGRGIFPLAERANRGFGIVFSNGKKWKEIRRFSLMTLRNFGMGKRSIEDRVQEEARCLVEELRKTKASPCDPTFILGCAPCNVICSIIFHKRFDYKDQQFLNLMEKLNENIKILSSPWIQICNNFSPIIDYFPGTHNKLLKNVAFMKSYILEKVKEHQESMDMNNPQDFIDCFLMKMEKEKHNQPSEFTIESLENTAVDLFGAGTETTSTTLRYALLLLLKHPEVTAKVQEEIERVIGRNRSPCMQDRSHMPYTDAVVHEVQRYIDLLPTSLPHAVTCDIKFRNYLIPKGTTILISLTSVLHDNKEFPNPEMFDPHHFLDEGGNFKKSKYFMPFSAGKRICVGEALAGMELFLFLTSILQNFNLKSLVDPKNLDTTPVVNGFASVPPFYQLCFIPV
Sequence of Cytochrome P450 2D6 (P10635 whole entry): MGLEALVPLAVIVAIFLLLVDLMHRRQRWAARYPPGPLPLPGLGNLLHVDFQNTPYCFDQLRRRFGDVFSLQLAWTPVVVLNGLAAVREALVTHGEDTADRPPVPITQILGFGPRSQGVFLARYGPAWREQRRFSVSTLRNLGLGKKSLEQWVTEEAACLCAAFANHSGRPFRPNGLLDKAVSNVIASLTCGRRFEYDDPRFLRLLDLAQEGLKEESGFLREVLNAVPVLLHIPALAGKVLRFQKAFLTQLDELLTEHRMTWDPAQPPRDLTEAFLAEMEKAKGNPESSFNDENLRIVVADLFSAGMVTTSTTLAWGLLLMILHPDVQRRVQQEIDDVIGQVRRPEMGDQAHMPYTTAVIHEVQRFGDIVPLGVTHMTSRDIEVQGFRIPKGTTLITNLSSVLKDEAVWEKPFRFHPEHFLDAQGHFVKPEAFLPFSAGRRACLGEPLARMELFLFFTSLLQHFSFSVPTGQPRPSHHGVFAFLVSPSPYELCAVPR
Sequence of Cytochrome P450 2C19 (P33261 whole entry): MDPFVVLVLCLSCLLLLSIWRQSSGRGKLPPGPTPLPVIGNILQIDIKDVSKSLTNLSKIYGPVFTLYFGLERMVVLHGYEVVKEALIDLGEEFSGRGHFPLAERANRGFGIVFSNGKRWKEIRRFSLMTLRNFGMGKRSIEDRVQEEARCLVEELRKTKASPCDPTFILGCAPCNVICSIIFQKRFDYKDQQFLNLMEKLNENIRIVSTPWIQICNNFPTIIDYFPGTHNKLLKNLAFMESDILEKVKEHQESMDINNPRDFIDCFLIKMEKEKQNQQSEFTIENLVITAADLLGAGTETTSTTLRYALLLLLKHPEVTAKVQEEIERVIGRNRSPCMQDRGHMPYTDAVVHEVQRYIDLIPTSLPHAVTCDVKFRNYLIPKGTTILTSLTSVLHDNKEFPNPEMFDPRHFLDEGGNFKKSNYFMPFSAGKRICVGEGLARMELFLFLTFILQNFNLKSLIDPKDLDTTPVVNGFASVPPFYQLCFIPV
Sequence of Baculoviral IAP repeat-containing protein 2 (Homo sapiens) (Q13490 whole entry, the tested form may be a part): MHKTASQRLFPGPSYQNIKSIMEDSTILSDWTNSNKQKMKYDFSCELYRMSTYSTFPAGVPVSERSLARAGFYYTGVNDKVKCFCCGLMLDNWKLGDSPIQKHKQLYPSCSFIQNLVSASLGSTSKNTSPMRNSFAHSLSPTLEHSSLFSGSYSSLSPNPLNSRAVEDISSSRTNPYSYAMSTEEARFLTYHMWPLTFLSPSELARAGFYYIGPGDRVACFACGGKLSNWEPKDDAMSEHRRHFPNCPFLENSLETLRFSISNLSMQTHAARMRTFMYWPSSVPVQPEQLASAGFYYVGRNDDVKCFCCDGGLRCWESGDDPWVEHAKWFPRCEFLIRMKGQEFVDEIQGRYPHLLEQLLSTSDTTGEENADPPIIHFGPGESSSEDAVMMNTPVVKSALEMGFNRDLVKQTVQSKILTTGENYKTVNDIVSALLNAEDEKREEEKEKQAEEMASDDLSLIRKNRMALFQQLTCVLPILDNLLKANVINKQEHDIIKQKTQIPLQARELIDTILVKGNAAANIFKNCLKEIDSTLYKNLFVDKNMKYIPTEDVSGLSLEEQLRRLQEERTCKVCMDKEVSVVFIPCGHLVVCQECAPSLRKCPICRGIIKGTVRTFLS
Sequence of Baculoviral IAP repeat-containing protein 3 (Homo sapiens) (Q13489 whole entry, the tested form may be a part): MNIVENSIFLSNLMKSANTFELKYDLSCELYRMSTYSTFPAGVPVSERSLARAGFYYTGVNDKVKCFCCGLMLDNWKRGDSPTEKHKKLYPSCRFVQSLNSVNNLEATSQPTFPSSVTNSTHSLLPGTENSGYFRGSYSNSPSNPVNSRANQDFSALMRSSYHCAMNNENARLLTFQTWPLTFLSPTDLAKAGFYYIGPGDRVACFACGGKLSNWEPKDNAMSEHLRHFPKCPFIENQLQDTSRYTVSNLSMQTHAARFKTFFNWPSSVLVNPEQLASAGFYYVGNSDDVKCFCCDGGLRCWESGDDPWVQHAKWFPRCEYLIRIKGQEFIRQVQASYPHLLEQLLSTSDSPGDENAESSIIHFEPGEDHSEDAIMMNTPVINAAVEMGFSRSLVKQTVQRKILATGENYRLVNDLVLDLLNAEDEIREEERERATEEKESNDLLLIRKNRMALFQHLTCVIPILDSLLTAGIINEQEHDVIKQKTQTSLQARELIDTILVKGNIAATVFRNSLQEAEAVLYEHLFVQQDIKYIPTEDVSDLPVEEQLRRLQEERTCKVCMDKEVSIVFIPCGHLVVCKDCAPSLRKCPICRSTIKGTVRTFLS

## CN[C@@H](C)C(=O)N[C@H](C(=O)N1CCC[C@H]1C(=O)Nc1cc2c(N[C@H]3CC[C@H](Nc4ncnc5cc(OC)c(NC(=O)[C@@H]6CCCN6C(=O)[C@@H](NC(=O)[C@H](C)NC)C(C)(C)C)cc45)CC3)ncnc2cc1OC)C(C)(C)C
MDA-MB-231 [1]
  IC50: 0.14 nM
Cytochrome P450 3A4
  IC50: 3560 nM
Cytochrome P450 1A2
  IC50: > 50000 nM
Cytochrome P450 2C9
  IC50: 43600 nM
Cytochrome P450 2C19
  IC50: 35700 nM
Cytochrome P450 2D6; read-out: IC50
  IC50: > 50000 nM
[2]
  remaining at 1 h: 86%
[3]
  remaining at 1 h: 63%
[4]
  remaining at 1 h: 100%
[5]
  remaining at 1 h: 94%
[6]
  Ki: 64 nM
[7]
  fold change (FC): 10.7
[8]
  fold change (FC): 3.4
MDA-MB-468
  IC50: 27.8 nM
MCF7
  IC50: 19.2 nM
OVCAR-3
  IC50: 0.2 nM
BXPC-3
  IC50: 0.2 nM
PANC-1
  IC50: 0.9 nM
MIA PaCa-2
  IC50: 0.1 nM
J82
  IC50: 17.4 nM
HS27
  IC50: > 10000 nM
[9]
  Activity: Non-Toxic
MDA-MB-231 [10]
  Activity: Active
MDA-MB-231 [11]
  viability at 0.001 µM: 67%
MDA-MB-231 [12]
  viability at 0.002 µM: 42%
MDA-MB-231 [13]
  viability at 0.005 µM: 30%
[14]
  Activity: Dose-dependent effect
[15]
  Activity: Dose-dependent effect
[16]
  Activity: Dose-dependent effect

## CN[C@@H](C)C(=O)N[C@H](C(=O)N1CCC[C@H]1C(=O)Nc1cc2c(NCc3ccc(CNc4ncnc5cc(OC)c(NC(=O)[C@@H]6CCCN6C(=O)[C@@H](NC(=O)[C@H](C)NC)C(C)(C)C)cc45)cc3)ncnc2cc1OC)C(C)(C)C
MDA-MB-231 [1]
  IC50: 4.3 nM

## CN[C@@H](C)C(=O)N[C@H](C(=O)N1CCC[C@H]1C(=O)Nc1cc2c(NC[C@H]3CC[C@H](CNc4ncnc5cc(OC)c(NC(=O)[C@@H]6CCCN6C(=O)[C@@H](NC(=O)[C@H](C)NC)C6CCCCC6)cc45)CC3)ncnc2cc1OC)C1CCCCC1
MDA-MB-231 [1]
  IC50: 1.03 nM
Cytochrome P450 3A4
  IC50: 660 nM

## CN[C@@H](C)C(=O)N[C@H](C(=O)N1CCC[C@H]1C(=O)Nc1cc2c(NCCOCCOCCNc3ncnc4cc(OC)c(NC(=O)[C@@H]5CCCN5C(=O)[C@@H](NC(=O)[C@H](C)NC)C(C)(C)C)cc34)ncnc2cc1OC)C(C)(C)C
MDA-MB-231 [1]
  IC50: 5.04 nM
Cytochrome P450 3A4
  IC50: 5650 nM

## CN[C@@H](C)C(=O)N[C@H](C(=O)N1CCC[C@H]1C(=O)Nc1cc2c(N3CCN(c4ncnc5cc(OC)c(NC(=O)[C@@H]6CCCN6C(=O)[C@@H](NC(=O)[C@H](C)NC)C(C)(C)C)cc45)CC3)ncnc2cc1OC)C(C)(C)C
MDA-MB-231 [1]
  IC50: 2.3 nM

## CN[C@@H](C)C(=O)N[C@H](C(=O)N1CCC[C@H]1C(=O)Nc1cc2c(OCC#CCOc3ncnc4cc(OC)c(NC(=O)[C@@H]5CCCN5C(=O)[C@@H](NC(=O)[C@H](C)NC)C(C)(C)C)cc34)ncnc2cc1OC)C(C)(C)C
MDA-MB-231 [1]
  IC50: 0.4 nM
Cytochrome P450 3A4
  IC50: 860 nM

## CN[C@@H](C)C(=O)N[C@H](C(=O)N1CCC[C@H]1C(=O)Nc1cc2c(NC[C@H]3CC[C@@H](CNc4ncnc5cc(OC)c(NC(=O)[C@@H]6CCCN6C(=O)[C@@H](NC(=O)[C@H](C)NC)C(C)(C)C)cc45)CC3)ncnc2cc1OC)C(C)(C)C
MDA-MB-231 [1]
  IC50: 0.41 nM
Cytochrome P450 3A4
  IC50: < 620 nM

## CN[C@@H](C)C(=O)N[C@H](C(=O)N1CCC[C@H]1C(=O)Nc1cc2c(Nc3ccc(OCC#CC#CCOc4ccc(Nc5ncnc6cc(OC)c(NC(=O)[C@@H]7CCCN7C(=O)[C@@H](NC(=O)[C@H](C)NC)C(C)(C)C)cc56)cn4)nc3)ncnc2cc1OC)C(C)(C)C
MDA-MB-231 [1]
  IC50: 34.6 nM

## CN[C@@H](C)C(=O)N[C@H](C(=O)N1CCC[C@H]1C(=O)Nc1cc2c(OCC#CC#CCOc3ncnc4cc(OC)c(NC(=O)[C@@H]5CCCN5C(=O)[C@@H](NC(=O)[C@H](C)NC)C(C)(C)C)cc34)ncnc2cc1OC)C(C)(C)C
MDA-MB-231 [1]
  IC50: 0.2 nM
Cytochrome P450 3A4
  IC50: 240 nM
Cytochrome P450 1A2
  IC50: > 50000 nM
Cytochrome P450 2C9
  IC50: 12600 nM
Cytochrome P450 2C19
  IC50: > 50000 nM
Cytochrome P450 2D6
  IC50: Not Active

## CN[C@@H](C)C(=O)N[C@H](C(=O)N1CCC[C@H]1C(=O)N(CCc1ccccc1)C(=O)C(F)(F)F)[C@H](C)OCC#CC#CCO[C@H](C)[C@H](NC(=O)[C@H](C)NC)C(=O)N1CCC[C@H]1C(=O)N(CCc1ccccc1)C(=O)C(F)(F)F
[17]
  Activity: Toxic

## CN[C@@H](C)C(=O)N[C@H](C(=O)N1CCC[C@H]1C(=O)Nc1cc2c(NCCCCCCCCNc3ncnc4cc(OC)c(NC(=O)[C@@H]5CCCN5C(=O)[C@@H](NC(=O)[C@H](C)NC)C(C)(C)C)cc34)ncnc2cc1OC)C(C)(C)C
MDA-MB-231 [1]
  IC50: 0.3 nM
Cytochrome P450 3A4
  IC50: 430 nM

## CN[C@@H](C)C(=O)N[C@H](C(=O)N1CCC[C@H]1C(=O)Nc1cc2c(NC[C@H]3CC[C@H](CNc4ncnc5cc(OC)c(NC(=O)[C@@H]6CCCN6C(=O)[C@@H](NC(=O)[C@H](C)NC)C(C)(C)C)cc45)CC3)ncnc2cc1OC)C(C)(C)C
MDA-MB-231 [1]
  IC50: 0.31 nM
Cytochrome P450 3A4
  IC50: 460 nM

## CN[C@@H](C)C(=O)N[C@H](C(=O)N1CCC[C@H]1C(=O)Nc1cc2c(NCC#CC#CCNc3ncnc4cc(OC)c(NC(=O)[C@@H]5CCCN5C(=O)[C@@H](NC(=O)[C@H](C)NC)C(C)(C)C)cc34)ncnc2cc1OC)C(C)(C)C
MDA-MB-231 [1]
  IC50: 0.3 nM
[2]
  remaining at 1 h: 64%
[3]
  remaining at 1 h: 65%
[4]
  remaining at 1 h: 87%
[5]
  remaining at 1 h: 62%

## CN[C@@H](C)C(=O)N[C@H](C(=O)N1CCC[C@H]1C(=O)Nc1cc2c(N[C@H]3CC[C@@H](Nc4ncnc5cc(OC)c(NC(=O)[C@@H]6CCCN6C(=O)[C@@H](NC(=O)[C@H](C)NC)C(C)(C)C)cc45)CC3)ncnc2cc1OC)C(C)(C)C
MDA-MB-231 [1]
  IC50: 5.93 nM
Cytochrome P450 3A4
  IC50: 5530 nM
